Laboratory results published in US8268635B2, “Methods of identifying agents that selectively activate p38 and/or NKkB signaling” (priority 2006, dated 2012).
Where no end group is shown, it is not given here.

What was measured:
Format in all cases: cell-based, human
[1] = system: E-selectin; assay: E-selectin expression on endothelial cells; conditions: TNF 100 or 1000 U/ml, TNF70-80 1-50 μM; data not presented
[2] = system: ERK1/ERK2; assay: ERK1/ERK2 activation in neutrophils in suspension; conditions: TNF, TNF70-80 15 min; PMA 100 nM 5 min
Description: The cells were lysed and the lysate assessed by western blot analysis for the level of dual-phosphorylated ERK1/ERK2 (top panel) and ERK2 protein (bottom panel). […] The level of myelin basic protein phosphorylation was quantitated by an Instant Imager.
Neutrophils were prepared from peripheral blood of healthy donors by a rapid single-step technique (Kumaratilake, L. M., Rathjen, D. A., Mack, P., Widmer, F., Prasertsiriroj, V., and Ferrante, A. (1995) J. Clin. Invest. 95: 2315-2323) using Hypaque-Ficoll and according to the institution's guidelines on human ethics. […]
(§1) KHS (hereon referred to as “GCKR”) activity was assayed as described previously using myelin basic protein as a substrate (Shi, C. S., Leonardi, A., Kyriakis, J., Siebenlist, U., and Kerhl, J. H. (1999) J. Immunol. 163: 3279-3285). ASK-1 activation was determined in immunoprecipitates of ASK-1 by autophosphorylation (Kyriakis, J. M., and Auruch, J. (2001) Physiol. Rev. 81: 807-869). p38 and ERK activities were determined as described using myelin basic protein as a substrate (Hii, C. S., Huang, Z. H., Bilney, A., Costabile, M., Murray, A. W., Rathjen, D. A., Der, C. J., and Ferrante, A. (1998) J. Biol. Chem. 273: 19277-19282). […]

[3] = system: ERK; assay: ERK activation in adherent neutrophils; conditions: neutrophils pre-adhered to plasma-coated dishes; 15 min; TNF 1000 U/ml, TNF70-80 10 μM
Description: Neutrophils were prepared from peripheral blood of healthy donors by a rapid single-step technique (Kumaratilake, L. M., Rathjen, D. A., Mack, P., Widmer, F., Prasertsiriroj, V., and Ferrante, A. (1995) J. Clin. Invest. 95: 2315-2323) using Hypaque-Ficoll and according to the institution's guidelines on human ethics. […] These were either used as cells in suspension or as adhered neutrophils by adding the cells to plasma coated plates as previously described (Powell, W., Gravel, S., Halwani, F., Hii, C. S., Huang, Z. H., Tan, A. M., and Ferrante, A. (1997) J. Immunol. 159: 2952-2959). […]
as §1

[4] = system: GCKR/GLK; assay: GCKR/GLK activity in adherent neutrophils; conditions: plasma-coated dishes; 15 min; TNF 1000 U/ml, TNF70-80 10 μM
Description: GCKR was immunoprecipitated from cell lysates and activity assayed using myelin basic protein (MBP) as the substrate. […] Activation of ASK-1 was determined by kinase autophosphorylation.
KHS (hereon referred to as “GCKR”) activity was assayed as described previously using myelin basic protein as a substrate (Shi, C. S., Leonardi, A., Kyriakis, J., Siebenlist, U., and Kerhl, J. H. (1999) J. Immunol. 163: 3279-3285). ASK-1 activation was determined in immunoprecipitates of ASK-1 by autophosphorylation (Kyriakis, J. M., and Auruch, J. (2001) Physiol. Rev. 81: 807-869). p38 and ERK activities were determined as described using myelin basic protein as a substrate (Hii, C. S., Huang, Z. H., Bilney, A., Costabile, M., Murray, A. W., Rathjen, D. A., Der, C. J., and Ferrante, A. (1998) J. Biol. Chem. 273: 19277-19282). […] A solid phase assay using glutathione-S-transferase (GST)-conjugated-jun (1-79) was employed to assay JNK activity (Hii, C. S., Huang, Z. H., Bilney, A., Costabile, M., Murray, A. W., Rathjen, D. A., Der, C. J., and Ferrante, A. (1998) J. Biol. Chem. 273: 19277-19282). Phosphorylated ASK-1, myelin basic protein and GST-jun (1-79) were fractionated on 8, 16 and 12% SDS polyacrylamide gels, respectively, and the bands were detected and radioactivity determined using an Instant Imager (Packard Instruments, Canberra, Australia).

[5] = system: neutrophils; assay: Neutrophil superoxide production, lucigenin chemiluminescence assay; conditions: agent alone as stimulus
Description: Neutrophils were pre-treated with varying concentrations of SB203580 for 30 min and then exposed to 10 μM TNF70-80. The lucigenin enhanced chemiluminescence produced by the cells was measured in a luminometer. The peak initial rate of chemiluminescence produced is presented as the mean±sem of six experiments. The response in the presence of the inhibitor is expressed as a % of the control response.
Neutrophil superoxide production was measured as the chemiluminescence generated by the reduction of lucigenin, essentially as described previously (Kumaratilake, L. M., Rathjen, D. A., Mack, P., Widmer, F., Prasertsiriroj, V., and Ferrante, A. (1995) J. Clin. Invest. 95: 2315-2323). Briefly, to 1×10^6 neutrophils in 400 μl of HBSS was added 100 μl of stimulus and 500 μl of 250 μg/ml of lucigenin. The chemiluminescence was measured in a luminometer (Berthold Technologies, Bad Wildbad, Germany) over a 20 min period and the data imported into Microsoft Excel (Redmond, Wash.).
The cells were placed in a water-jacketed luminometer chamber (37° C.) (Autolumat Plus Model LB 953, Berthold Technologies, Bundoora, Australia) and the resulting light output recorded in millivolts (mV) at 10 second intervals. The data was analysed with Multiuser software (Berthold Tubemaster, Bundoora, Australia). The results are expressed as peak superoxide produced.
Various concentrations of TNFR1 fragment or diluent were added to neutrophils (106 in 100 μl HBSS) and incubated at 37° C. for 30 min 5% CO2 in air. After incubation 500 μl of lucigenin (250 μM, final), 100 μl of TNF70-80 (100 μg) were added and the final volume was adjusted to 1 ml.
Superoxide production by human neutrophils was measured by the reduction of the fluorescent lucigenin, (9,9′-bis(N-methyl-acridinium nitrate) (Sigma Chemical Company). This provides a direct and specific measure of agonist-induced superoxide production. Lucigenin-dependant chemiluminescence was measured as described previously Gyllenhannar H. (1987) J. Immunol. Methods 97:209-213. Briefly, 50 μl of 100 mg/ml of peptide or diluent and 250 ml of lucigenin was added to neutrophils (5×10^5 in 50 μl HBSS). The cells were placed in a water-jacketed luminometer chamber (37° C.) (Autolumat Plus Model LB 953, Berthold Technologies, Bundoora, Australia) and the resulting light output recorded in millivolts (mV) at 10 second intervals. The data was analysed with Multi-user software (Berthold Tubemaster, Bundoora, Australia).
Data are presented as mean±SEM of 3 experiments.

## PSTHVLITHTI-OH [TNF70-80]
[1]
  expression of E-selectin on endothelial cells: but not TNF70-80 (1-50 μM) stimulated the expression of E-selectin
[2]
  activity/dual phosphorylation of ERK in neutrophils in suspension: neither TNF nor TNF70-80 stimulated the activity of either JNK or ERK
[3]
  ERK activation in adherent neutrophils: failed to stimulate the activation of the ERKs
[4]
  GCKR/GLK activity in adherent neutrophils: poor at stimulating GCKR/GLK activity
[5]
  stimulation of neutrophil respiratory burst / superoxide production: stimulated a respiratory burst
